Reference: patent US20240408099A1, “COMBINATION […] OF KRAS G12D INHIBITORS WITH Pan ErbB FAMILY INHIBITORS” (MIRATI THERAPEUTICS, INC., priority 2021, published 2024)

Test system: HPAC cells
Assay: HPAC TGI 73 pancreatic cancer xenograft, tumor volumes
Assay type: in vivo, nude/nude mice
Conditions: for Average Tumor Volumes: 50 mg/kg PO daily
Description: Immunocompromised nude/nude mice are inoculated in the right hind flank with cells harboring a KRas G12D mutation. When tumor volumes reach between 200-400 mm^3 in size, the mice are divided into four to five groups of 5 mice each. The first group is administered vehicle only. […] The fourth or last groups are administered the single agent dose of the KRas G12D inhibitor using the twice daily schedule and/or the 2 sequential days followed by 5 days off schedule in combination with the single agent dose of one of the EGFR inhibitors. The treatment period varies from cell line to cell line but typically is between 15-40 days. Tumor volumes are measured using a caliper every two-three days and tumor volumes are calculated by the formula: […].
Experimental Procedures. 20 nude/nude mice were inoculated with HPAC cells in the right hind flank. When the tumors reached ˜200 mm^3 four treatment groups were established with five mice per group.

C#Cc1cccc(Nc2ncnc3cc(OCCOC)c(OCCOC)cc23)c1 [Erlotinib, [6,7-Bis-(2-methoxy-ethoxy)-quinazolin-4-yl]-(3-ethynyl-phenyl)-amine, reference compound]
Average Tumor Volumes (Study Day 0): 197.582 mm^3 | Average Tumor Volumes (Study Day 3): 320.132 mm^3 | Average Tumor Volumes (Study Day 7): 421.908 mm^3 | Average Tumor Volumes (Study Day 10): 587.79 mm^3 | Average Tumor Volumes (Study Day 14): 705.688 mm^3 | Average Tumor Volumes (Study Day 17): 856.214 mm^3 | Average Tumor Volumes (Study Day 21): 945.702 mm^3 | tumor growth inhibition (50 mg/kg daily, single agent, Day 21): 35%
